The results in this text go back to doi:10.1101/2020.02.07.939504v1 (biorxiv, 2020).

Molecules are shown by their SMILES. Read-outs that look alike come from different tables or passages of the source.

The target of one assay is y-iAChSnFR. The conditions noted are these: 200 nM purified sensor.
A further assay has as its target X513-OpuBC. Nature of the assay: isothermal titration calorimetry. It is filed as binding, Thermoanaerobacter sp. X513. The conditions noted are these: 25 °C, PBS, single experiment.
The next assay concerns the target iAChSnFR (iAChSnFR0.9). The conditions noted are these: 200 nM soluble purified sensor.
A further assay has as its target iAChSnFR0.4. Nature of the assay: fluorescence titration of purified sensor. The format is binding, Thermoanaerobacter sp. The conditions noted are these: read-out: apparent Kd; 200 nM purified sensor.

Turning to `CC(=O)OCC[N+](C)(C)C` [acetylcholine], the Kd on y-iAChSnFR came out at 0.5 µM; at X513-OpuBC (fit with fixed N = 1) it was 95 µM; at iAChSnFR (iAChSnFR0.9) (read-out: apparent Kd) it was 1.3 ± 1 µM; on iAChSnFR0.4, 220 ± 16 µM.

As to `C[N+](C)(C)CCO` [choline], the Kd at y-iAChSnFR came out at 20 µM; on X513-OpuBC (variable stoichiometry fit, N = 0.55), 8 µM; at iAChSnFR (iAChSnFR0.9) (read-out: apparent Kd) it was 45 ± 1.1 µM.

For the compound `NCCc1c[nH]c2ccc(O)cc12` [serotonin], the Kd at iAChSnFR (iAChSnFR0.9) (read-out: affinity) was > 1000 µM.
